As usually defined, the inhibition is the change of the read-out against control, counted positive when it falls.

One assay relates to Raw264.7 cells. Briefly: Cell number (CellNb) from image analysis of the phenotypic cell-based assay.
Details: not given
For the compound `CCOC(=O)c1c(CSc2ccccc2)n(Cc2ccccc2)c2ccc(O)c(CN(C)C)c12` [IPK 000 016 05], the “Primary QIM CellNb” value is reported as 192.0, the “QIM Confirm CellNb 0.2 uM” value turned out to be 206.8, the “QIM Confirm CellNb 2 uM” value is reported as 148.9 and the “QIM Confirm CellNb 20 uM” value was 282.0.

Consider `O=C(N/N=C/c1ccco1)c1ccncc1` [IPK 000 013 67], for which the “Primary QIM CellNb” value worked out at 358.0, the “QIM Confirm CellNb 0.2 uM” value came to 452.5, the “QIM Confirm CellNb 2 uM” value came to 545.1 and the “QIM Confirm CellNb 20 uM” value amounted to 457.3.

As for `O=C(NCCOCc1ccccc1)c1cc([N+](=O)[O-])cc([N+](=O)[O-])c1` [IPK 000 027 91], the “Primary QIM CellNb” value is 410.8, the “QIM Confirm CellNb 0.2 uM” value worked out at 295.3, the “QIM Confirm CellNb 2 uM” value came to 434.1 and the “QIM Confirm CellNb 20 uM” value was found to be 325.6.

As to `C/C(=N\NC(N)=S)c1ccc(Cl)cc1` [IPK 000 002 17], the “Primary QIM CellNb” value came to 235.5, the “QIM Confirm CellNb 0.2 uM” value was determined as 472.3, the “QIM Confirm CellNb 2 uM” value came out at 541.6 and the “QIM Confirm CellNb 20 uM” value is on record as 249.8.

Still in this assay, the particulars now being: confirmation, 0.2 uM.
Take `O=C1c2ccccc2-c2nc3nonc3nc21` [IPK 000 011 19]: the “QIM Confirm CellNb 0.2 uM” value is reported as 248.8.

On to `CCOC(=O)/N=C(\NC(C)=O)c1cccc(Cl)c1` [IPK 000 033 61], for which the “QIM Confirm CellNb 0.2 uM” value turned out to be 210.8.

On to `CC(C)c1ccc(CNC(=O)c2cc([N+](=O)[O-])cc([N+](=O)[O-])c2)cc1` [IPK 000 027 78], for which the “QIM Confirm CellNb 0.2 uM” value is given as 366.0.

The assay is the same for the next values; noted with them: confirmation, 2 uM.
Turning to `O=C1c2ccccc2-c2nc3nonc3nc21` [IPK 000 011 19], the “QIM Confirm CellNb 2 uM” value turned out to be 80.0.

As for `CCOC(=O)/N=C(\NC(C)=O)c1cccc(Cl)c1` [IPK 000 033 61], the “QIM Confirm CellNb 2 uM” value is 434.1.

Consider `CC(C)c1ccc(CNC(=O)c2cc([N+](=O)[O-])cc([N+](=O)[O-])c2)cc1` [IPK 000 027 78], for which the “QIM Confirm CellNb 2 uM” value was found to be 543.5.

Staying with this assay, now noted: confirmation, 20 uM.
Regarding `O=C1c2ccccc2-c2nc3nonc3nc21` [IPK 000 011 19], the “QIM Confirm CellNb 20 uM” value amounted to 279.1.

For the compound `CCOC(=O)/N=C(\NC(C)=O)c1cccc(Cl)c1` [IPK 000 033 61], the “QIM Confirm CellNb 20 uM” value was 111.8.

Turning to `CC(C)c1ccc(CNC(=O)c2cc([N+](=O)[O-])cc([N+](=O)[O-])c2)cc1` [IPK 000 027 78], the “QIM Confirm CellNb 20 uM” value came to 499.4.

Still in this assay, the particulars now being: primary screen, 20 μM.
For the compound `O=C1c2ccccc2-c2nc3nonc3nc21` [IPK 000 011 19], the “Primary QIM CellNb” value turned out to be 190.8.

Take `CCOC(=O)/N=C(\NC(C)=O)c1cccc(Cl)c1` [IPK 000 033 61]: the “Primary QIM CellNb” value is reported as 188.3.

On to `CC(C)c1ccc(CNC(=O)c2cc([N+](=O)[O-])cc([N+](=O)[O-])c2)cc1` [IPK 000 027 78], for which the “Primary QIM CellNb” value is reported as 332.0.

Another assay deals with M. tuberculosis H37Rv-GFP. Briefly: microbe, parasite or virus in culture. To be noted: Mycobacterium tuberculosis, read-out: QUM Confirm % Inhibition 0.2 uM. In kind it is cell-based.
Regarding `O=C1c2ccccc2-c2nc3nonc3nc21` [IPK 000 011 19], the inhibition at 0.2 µM was determined as 67.2%.

`CCOC(=O)/N=C(\NC(C)=O)c1cccc(Cl)c1` [IPK 000 033 61]: the inhibition at 0.2 µM turned out to be 51.6%.

Turning to `CCOC(=O)c1c(CSc2ccccc2)n(Cc2ccccc2)c2ccc(O)c(CN(C)C)c12` [IPK 000 016 05], the inhibition at 0.2 µM worked out at 36.6%.

As to `O=C(N/N=C/c1ccco1)c1ccncc1` [IPK 000 013 67], the inhibition at 0.2 µM amounted to 49.4%.

Regarding `O=C(NCCOCc1ccccc1)c1cc([N+](=O)[O-])cc([N+](=O)[O-])c1` [IPK 000 027 91], the inhibition at 0.2 µM amounted to 65.8%.

`CC(C)c1ccc(CNC(=O)c2cc([N+](=O)[O-])cc([N+](=O)[O-])c2)cc1` [IPK 000 027 78]: the inhibition at 0.2 µM is 71.7%.

For the compound `C/C(=N\NC(N)=S)c1ccc(Cl)cc1` [IPK 000 002 17], the inhibition at 0.2 µM is 56.9%.

Staying with this assay, now noted: Mycobacterium tuberculosis, read-out: QUM Confirm % Inhibition 2 uM.
On to `O=C1c2ccccc2-c2nc3nonc3nc21` [IPK 000 011 19], for which the inhibition at 2 µM amounted to 93.2%.

Consider `CCOC(=O)/N=C(\NC(C)=O)c1cccc(Cl)c1` [IPK 000 033 61], for which the inhibition at 2 µM turned out to be 37.6%.

Turning to `CCOC(=O)c1c(CSc2ccccc2)n(Cc2ccccc2)c2ccc(O)c(CN(C)C)c12` [IPK 000 016 05], the inhibition at 2 µM came to 42.5%.

As for `O=C(N/N=C/c1ccco1)c1ccncc1` [IPK 000 013 67], the inhibition at 2 µM is 90.2%.

With `O=C(NCCOCc1ccccc1)c1cc([N+](=O)[O-])cc([N+](=O)[O-])c1` [IPK 000 027 91], the inhibition at 2 µM was 97.6%.

As to `CC(C)c1ccc(CNC(=O)c2cc([N+](=O)[O-])cc([N+](=O)[O-])c2)cc1` [IPK 000 027 78], the inhibition at 2 µM turned out to be 97.5%.

As for `C/C(=N\NC(N)=S)c1ccc(Cl)cc1` [IPK 000 002 17], the inhibition at 2 µM amounted to 67.4%.

Staying with this assay, now noted: Mycobacterium tuberculosis, read-out: QUM Confirm % Inhibition 20 uM.
As to `O=C1c2ccccc2-c2nc3nonc3nc21` [IPK 000 011 19], the inhibition at 20 µM was 43.1%.

Consider `CCOC(=O)/N=C(\NC(C)=O)c1cccc(Cl)c1` [IPK 000 033 61], for which the inhibition at 20 µM is 67.1%.

In the case of `CCOC(=O)c1c(CSc2ccccc2)n(Cc2ccccc2)c2ccc(O)c(CN(C)C)c12` [IPK 000 016 05], the inhibition at 20 µM turned out to be 70%.

Regarding `O=C(N/N=C/c1ccco1)c1ccncc1` [IPK 000 013 67], the inhibition at 20 µM came to 69.7%.

Turning to `O=C(NCCOCc1ccccc1)c1cc([N+](=O)[O-])cc([N+](=O)[O-])c1` [IPK 000 027 91], the inhibition at 20 µM came to 75%.

As to `CC(C)c1ccc(CNC(=O)c2cc([N+](=O)[O-])cc([N+](=O)[O-])c2)cc1` [IPK 000 027 78], the inhibition at 20 µM was 78.2%.

For `C/C(=N\NC(N)=S)c1ccc(Cl)cc1` [IPK 000 002 17], the inhibition at 20 µM was determined as 49.7%.

Another assay relates to M. tuberculosis H37Rv-GFP. Briefly: microbe, parasite or virus in culture. The following applies: Mycobacterium tuberculosis, H37RV, Macrophage, read-out: Primary QIM % Inhibition. In kind it is cell-based, Mycobacterium tuberculosis.
With `CCOC(=O)c1c(CSc2ccccc2)n(Cc2ccccc2)c2ccc(O)c(CN(C)C)c12` [IPK 000 016 05], the inhibition at 20 µM was 67.9%.

For `O=C(N/N=C/c1ccco1)c1ccncc1` [IPK 000 013 67], the inhibition at 20 µM worked out at 98.7%.

On to `O=C(NCCOCc1ccccc1)c1cc([N+](=O)[O-])cc([N+](=O)[O-])c1` [IPK 000 027 91], for which the inhibition at 20 µM came to 89%.

Take `C/C(=N\NC(N)=S)c1ccc(Cl)cc1` [IPK 000 002 17]: the inhibition at 20 µM worked out at 26.6%.

The same assay, now with this note: Mycobacterium tuberculosis, H37RV, Macrophage, read-out: QIM Confirm % Inhibition 0.2 uM.
In the case of `CCOC(=O)c1c(CSc2ccccc2)n(Cc2ccccc2)c2ccc(O)c(CN(C)C)c12` [IPK 000 016 05], the inhibition at 0.2 µM is -2.2%.

As to `O=C(N/N=C/c1ccco1)c1ccncc1` [IPK 000 013 67], the inhibition at 0.2 µM stood at 84.1%.

For `O=C(NCCOCc1ccccc1)c1cc([N+](=O)[O-])cc([N+](=O)[O-])c1` [IPK 000 027 91], the inhibition at 0.2 µM was 14.2%.

Regarding `C/C(=N\NC(N)=S)c1ccc(Cl)cc1` [IPK 000 002 17], the inhibition at 0.2 µM came out at 54.5%.

Still in this assay, the particulars now being: Mycobacterium tuberculosis, H37RV, Macrophage, read-out: QIM Confirm % Inhibition 2 uM.
On to `CCOC(=O)c1c(CSc2ccccc2)n(Cc2ccccc2)c2ccc(O)c(CN(C)C)c12` [IPK 000 016 05], for which the inhibition at 2 µM amounted to 0.8%.

On to `O=C(N/N=C/c1ccco1)c1ccncc1` [IPK 000 013 67], for which the inhibition at 2 µM turned out to be 102%.

Regarding `O=C(NCCOCc1ccccc1)c1cc([N+](=O)[O-])cc([N+](=O)[O-])c1` [IPK 000 027 91], the inhibition at 2 µM came out at 98.5%.

Turning to `C/C(=N\NC(N)=S)c1ccc(Cl)cc1` [IPK 000 002 17], the inhibition at 2 µM came out at 70.4%.

The same assay, now with this note: Mycobacterium tuberculosis, H37RV, Macrophage, read-out: QIM Confirm % Inhibition 20 uM.
For the compound `CCOC(=O)c1c(CSc2ccccc2)n(Cc2ccccc2)c2ccc(O)c(CN(C)C)c12` [IPK 000 016 05], the inhibition at 20 µM stood at 43.4%.

Take `O=C(N/N=C/c1ccco1)c1ccncc1` [IPK 000 013 67]: the inhibition at 20 µM was 66.7%.

For the compound `O=C(NCCOCc1ccccc1)c1cc([N+](=O)[O-])cc([N+](=O)[O-])c1` [IPK 000 027 91], the inhibition at 20 µM worked out at 46.1%.

With `C/C(=N\NC(N)=S)c1ccc(Cl)cc1` [IPK 000 002 17], the inhibition at 20 µM stood at 24.5%.

Staying with this assay, now noted: Mycobacterium tuberculosis, H37RV, Macrophage; confirmation, 0.2 uM, intracellular; read-out: QIM Confirm % Inhibition 0.2 uM.
As for `O=C1c2ccccc2-c2nc3nonc3nc21` [IPK 000 011 19], the inhibition at 0.2 µM is 9.7%.

Consider `CCOC(=O)/N=C(\NC(C)=O)c1cccc(Cl)c1` [IPK 000 033 61], for which the inhibition at 0.2 µM stood at 16.2%.

Consider `CC(C)c1ccc(CNC(=O)c2cc([N+](=O)[O-])cc([N+](=O)[O-])c2)cc1` [IPK 000 027 78], for which the inhibition at 0.2 µM worked out at 33%.

The same assay, now with this note: Mycobacterium tuberculosis, H37RV, Macrophage; confirmation, 2 uM, intracellular; read-out: QIM Confirm % Inhibition 2 uM.
For the compound `O=C1c2ccccc2-c2nc3nonc3nc21` [IPK 000 011 19], the inhibition at 2 µM was determined as 31.6%.

As to `CCOC(=O)/N=C(\NC(C)=O)c1cccc(Cl)c1` [IPK 000 033 61], the inhibition at 2 µM worked out at 13.8%.

In the case of `CC(C)c1ccc(CNC(=O)c2cc([N+](=O)[O-])cc([N+](=O)[O-])c2)cc1` [IPK 000 027 78], the inhibition at 2 µM was found to be 99.3%.

Staying with this assay, now noted: Mycobacterium tuberculosis, H37RV, Macrophage; confirmation, 20 uM; read-out: QIM Confirm % Inhibition 20 uM.
With `O=C1c2ccccc2-c2nc3nonc3nc21` [IPK 000 011 19], the inhibition at 20 µM came to 47.6%.

Consider `CCOC(=O)/N=C(\NC(C)=O)c1cccc(Cl)c1` [IPK 000 033 61], for which the inhibition at 20 µM was determined as 62.9%.

In the case of `CC(C)c1ccc(CNC(=O)c2cc([N+](=O)[O-])cc([N+](=O)[O-])c2)cc1` [IPK 000 027 78], the inhibition at 20 µM stood at 96.3%.

Still in this assay, the particulars now being: Mycobacterium tuberculosis, H37RV, Macrophage; primary screen, 20 μM; read-out: Primary QIM % Inhibition.
In the case of `O=C1c2ccccc2-c2nc3nonc3nc21` [IPK 000 011 19], the inhibition at 20 µM came out at 60%.

In the case of `CCOC(=O)/N=C(\NC(C)=O)c1cccc(Cl)c1` [IPK 000 033 61], the inhibition at 20 µM was determined as 31.6%.

`CC(C)c1ccc(CNC(=O)c2cc([N+](=O)[O-])cc([N+](=O)[O-])c2)cc1` [IPK 000 027 78]: the inhibition at 20 µM stood at 79.6%.
